Data published in patent US9446048B2, “Methods for treating leukemia and disorders mediated by CBFβ and RUNX1 proteins” (The United States of America, as represented by the …, priority 2011, dated 2016).

What was measured:
RUNX1-CBFβ binding = target: T1, RUNX1-CBFβ binding (Homo sapiens, UniProt Q01196+Q13951); assay: AlphaScreen high-throughput screen for blocking RUNX1-CBFβ interaction; conditions: HTS for RUNX1-CBFβ interaction inhibitors
T1 construct: The full length biotinylated RUNX1, histagged CBFβ and untagged CBFβ proteins were purchased; biotin (biotinylated); purchased Genecopoeia (Germantown, Md.); host or cells: wheat germ extract cell-free protein translation system
Protocol: An Amplified Luminescence Proximity Homogenous Assay (ALPHA) Screen format (PerkinElmer) was used to develop an assay for identifying compounds that affect RUNX1-CBFβ binding (see FIG. 3) optimized for high throughput screening (HTS). The full length biotinylated RUNX1, histagged CBFβ and untagged CBFβ proteins were purchased from Genecopoeia (Germantown, Md.) that were prepared in a wheat germ extract cell-free protein translation system. All three proteins were purified using an affinity column and FPLC chromatography. The assay buffer was comprised of 25 mM HEPES (pH 7.4), 110 mM KC1, 2 mM MgCl2, 10 mM NaCl, 5 mM DTT, and 0.01% Tween-20. The AlphaScreen assay platform (PerkinElmer) was applied for the measurement of interaction of Runx1 protein with the CBFb protein. The assay was developed in 384-well plate format and optimized in 1536-well plate format for high throughput screening. […] The assay plate was measured in an AlphaScreen mode using an Envision plate reader (Perkin Elmer, Waltham, Mass.). […]
Synthesized, tagged RUNX1 and CBFβ were used in the assay and a total of over 240,000 compounds at 7 concentrations each were screened with this assay. […] Confirmatory ALPHA and HTRF (homogeneous time resolved fluorescence) assays were performed to prioritize compounds for their ability to inhibit RUNX1-CBFβ interaction.

zebrafish embryos = assay: Blockage of zebrafish embryonic definitive hematopoiesis (cd41-GFP / lck-GFP transgenic embryos); assay type: in vivo, zebrafish (Danio rerio); conditions: for numbers of cd41-GFP cells in embryos: FIG. 4C, cd41-GFP transgenic embryos; for definitive hematopoiesis in zebrafish embryos: compounds added to water at 24 hours post fertilization, cd41-GFP or lck-GFP embryos
Protocol: Candidate compounds were tested in a zebrafish model to determine if they specifically block RUNX1-CBFβ interaction. RUNX1 and CBFβ are required for definitive hematopoiesis during embryogenesis, since RUNX1 and CBFβ knockout mouse embryos are devoid of definitive blood cells. Thus, inhibitors of RUNX1 and CBFβ should also be able to block definitive hematopoiesis as well. Standard protocols were used to breed and raise embryos from the cd41-GFP transgenic fish in which GFP marks hematopoietic stem cells, in addition to thrombocytes during embryogenesis, and from the lck-GFP transgenic fish in which GFP marks the T lineage cells. (See Westerfield M, ed The Zebrafish Book, A guide for the laboratory use of zebrafish (Danio rerio). Edition 3 ed. Eugene, Oreg.: University of Oregon Press; 1995; Lin et al. Analysis of thrombocyte development in CD41-GFP transgenic zebrafish. Blood. Dec. 1, 2005; 106(12):3803-3810; Bertrand et al. CD41+ cmyb+ precursors colonize the zebrafish pronephros by a novel migration route to initiate adult hematopoiesis. Development. May 2008; 135(10):1853-1862; Bertrand et al. Definitive hematopoiesis initiates through a committed erythromyeloid progenitor in the zebrafish embryo. Development. December 2007; 134(23):4147-4156; Kissa et al. Live imaging of emerging hematopoietic stem cells and early thymus colonization. Blood. Feb. 1, 2008; 111(3):1147-1156; Langenau et al. In vivo tracking of T cell development, ablation, and engraftment in transgenic zebrafish. Proc Natl Acad Sci USA. May 11, 2004; 101(19):7369-7374). Compounds were added to the water at 24 hours post fertilization and the final DMSO concentrations were less than 0.1%. The embryos were then observed, photographed, and videotaped with a Leica MZ16F dissecting scope, equipped with a Leica DC500 camera and a BioVision Vision-Mac™ video system. The numbers of GFP+ cells in each embryo were counted manually.

[1] = test system: leukemia cells with CBF fusion genes; assay: Selective cytotoxicity for CBF leukemia cell lines (ATPlite cellular ATP content); assay type: cell-based; conditions: 24 hours; for killing of leukemia cells with CBF fusion genes versus without: ATP content
Protocol: FIG. 5 depicts the results of treating leukemia cells with or without CBF fusion genes with Ro5-3335. […] The cellular ATP content was measured by a luciferase based viability assay with −100% as 100% cell killing.
Cell lines including HeLa, HL-60, Kasumi-1, Kasumi-6, ME-1, RS4 and REH were obtained from American Type Culture Collection (ATCC, Manassas, Va.). Cells in suspension at a density of 100,000 cells/ml were grown in a T175 flask with 20% FBS RPMI-1640 medium except 20% FBS IMDM medium for HL-60 cell line and the medium was renewed every 2-3 days. The cells were centrifuged and resuspended in 10% FBS phenol free OPTI-MEM medium which were seeded at 500 cells/well in 5 uL in 1536-well white solid-bottom plates using a Multidrop Combi dispenser (ThermoFisher Scientific Inc., Waltham, Mass.). The assay plates were incubated at 37° C. with 5% CO2 and 95% humidity for 2 hours prior to compound addition. Subsequently, 23 nL/well compound DMSO solutions or DMSO controls were transferred to the assay plates using a Kalypsys pintool workstation (Kalypsys, San Diego, Calif.). The plates were then incubated at 37° C. with 5% CO2 and 95% humidity for 24 hours followed by an addition of 4 uL/well of ATPlite reagent (PerkinElmer). After a 20 minute incubation, the plates were measured in the luminescence mode using a ViewLux plate reader (Perkinelmer, Waltham, Mass.).

[2] = test system: CBF leukemia cells (CBFB-MYH11); assay: Leukemia transplantation murine model (Cbfb-MYH11 knock-in leukemia cells); assay type: in vivo, mouse; conditions: for leukemia burden in mice: 300 mg/kg/day in transgenic dough, similar efficacy as standard chemotherapy drugs; for survival of leukemic mice, combination with cytarabine: 300 mg/kg/p.o. days 10-40 plus cytarabine days 10-15
Protocol: Compound Ro5-3335 was tested in a CBFβ-MYH11 knock-in mouse model that faithfully models human leukemia with this fusion gene. The mouse model is described in Castilla et al, Failure of embryonic hematopoiesis and lethal hemorrhages in mouse embryos heterozygous for a knocked-in leukemia gene CBFB-MYH11. Cell. 1996; 87(4):687-696; Castilla et al., The fusion gene Cbfb-MYH11 blocks myeloid differentiation and predisposes mice to acute myelomonocytic leukemia. Nat. Genet. October 1999; 23[2]:144-146. The CBFB-MYH11 fusion gene in this mouse model initiates leukemia development with high penetrance but variable latency. However, when the leukemia cells are transplanted, the recipient mice develop leukemia with very short, consistent latency and 100% penetrance.
The B6129F1/J mice were used for injection of leukemia cells developed in the Cbfb-MYH11 knock-in mice. The recipient mice were irradiated at 900 rads before the leukemia cells were given through retro-orbital vein injection, typically at around 250,000-500,000 cells/mouse. Ten days after leukemia cell injection, the mice were given the candidate compounds Ro5-3335 and Ro24-7429 in transgenic dough, at 300 mg/kg/day for up to 30 days. Cytarabine was given for 6 consecutive days starting on day 10 after transplantation, at 100 mg/kg/day IP, and doxorubicin was given for 4 consecutive days starting on day 10 after transplantation, at 3 mg/kg/day IP. The mice were followed by daily inspection and bi-weekly analysis of peripheral blood, which was collected by retro-orbital bleeding. Leukemia cells in the peripheral blood were evaluated by FACS analysis and by blood smear observation. Moribund mice were sacrificed and necropsy conducted to ascertain the diagnosis of terminal leukemia.

[3] = was reported; cited from earlier work

T1 sequence (Q01196 whole entry): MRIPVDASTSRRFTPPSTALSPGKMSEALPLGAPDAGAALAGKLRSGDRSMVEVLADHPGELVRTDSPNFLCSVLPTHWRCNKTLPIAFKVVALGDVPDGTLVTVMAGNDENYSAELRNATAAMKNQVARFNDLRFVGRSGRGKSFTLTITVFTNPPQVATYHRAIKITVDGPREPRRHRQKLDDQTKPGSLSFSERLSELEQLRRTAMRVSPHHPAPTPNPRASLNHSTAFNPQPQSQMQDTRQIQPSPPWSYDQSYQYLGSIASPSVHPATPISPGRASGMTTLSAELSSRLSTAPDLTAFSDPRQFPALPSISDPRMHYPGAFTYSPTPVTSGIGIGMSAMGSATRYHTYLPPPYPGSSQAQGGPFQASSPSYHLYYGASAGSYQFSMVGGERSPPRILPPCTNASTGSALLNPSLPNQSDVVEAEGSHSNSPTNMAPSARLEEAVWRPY
T1 sequence (Q13951 whole entry): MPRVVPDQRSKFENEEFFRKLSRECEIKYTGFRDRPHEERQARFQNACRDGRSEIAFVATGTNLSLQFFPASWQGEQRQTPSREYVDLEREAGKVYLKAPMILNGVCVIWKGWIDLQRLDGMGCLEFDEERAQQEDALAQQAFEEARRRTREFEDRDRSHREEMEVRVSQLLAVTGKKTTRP

SMILES | activity in the original screening (RUNX1-CBFβ binding) | numbers of cd41-GFP cells in embryos (zebrafish embryos) | definitive hematopoiesis in zebrafish embryos (zebrafish embryos) | definitive hematopoiesis in zebrafish embryos (zebrafish embryos; listed as J1) | killing of leukemia cells with CBF fusion genes versus without [1] | definitive hematopoiesis in zebrafish embryos (zebrafish embryos; listed as J2) | cell killing potency for CBF leukemia cell lines relative to leukemia cell lines without CBF fusion genes ([1]; ATP content IC50 comparison) | leukemia burden in mice [2] | survival of leukemic mice, combination with cytarabine [2] | leukemia cell burden (c-kit+ cells) ([2]; FIG. 9, 10 days after treatments started) | definitive hematopoiesis in zebrafish embryos (zebrafish embryos; listed as J8) | toxicological profile relative to Ro5-3335 [3] | survival of leukemic mice, single agent ([2]; second experiment, cytarabine on days 10-15)
NCC(=O)Nc1ccc(Cl)cc1C(=O)c1ccc[nH]1 [MLS000766105, 2-amino-N-[4-chloro-2-(1H-pyrrole-2-carbonyl)phenyl]acetamide] | active | reduced numbers | significant reduction | reduce definitive hematopoiesis | preferentially killed |  |  |  |  |  |  |  | 
O=C1CN=C(c2ccc[nH]2)c2cc(Cl)ccc2N1 [Ro5-3335, 7-chloro-5-(1H-pyrrol-2-yl)-1,3,-dihydro-1,4-benzodiaepin-2-one] |  | reduced numbers | significant reduction |  | preferentially killed | reduce definitive hematopoiesis | 6-50 fold | significantly reduced | synergy | reduced leukemia cell burden |  |  | 
CNC1=Nc2ccc(Cl)cc2C(c2ccc[nH]2)=NC1 [Ro24-7429, 7-chloro-N-methyl-5-1(1H-pyrrol-2-yl)-3H-1,4-benzodiazepin-2-amine] |  | reduced numbers | significant reduction |  |  |  |  | significantly reduced | trend of synergy |  | reduce definitive hematopoiesis | improved toxicological profile | 
Nc1ccn([C@@H]2O[C@H](CO)[C@@H](O)[C@@H]2O)c(=O)n1 [cytarabine, reference compound] |  |  |  |  |  |  |  |  |  |  |  |  | failed to extend survival
